Data from patent publication US20110143948A1, “MOLECULAR SIGNATURES AND BIOMARKERS ASSOCIATED WITH MELANOMA AND METHODS OF USE THEREOF” (priority 2008, published 2011).

Tested on: ncRNAs (SEQ ID NO 28-89)
Assay: ncRNA arrays of melanocytes, keratinocytes, normal skin, melanoma cell lines and patient samples
Set-up: species or system human
Details: for ncRNA array expression, patient 2: melanoma patient 2 sample compared to normal skin; for ncRNA array expression, patient 3: melanoma patient 3 sample compared to normal skin; for ncRNA array expression, patient 4: melanoma patient 4 sample compared to normal skin; for ncRNA array expression, patient 5: melanoma patient 5 sample compared to normal skin; for ncRNA array expression, patient 6: melanoma patient 6 sample compared to normal skin; for ncRNA array expression, patient 7: melanoma patient 7 sample compared to normal skin; for ncRNA array expression, patient 8: melanoma patient 8 sample compared to normal skin; for ncRNA array expression, patient 9: melanoma patient 9 sample compared to normal skin; for ncRNA array expression, patient 10: melanoma patient 10 sample compared to normal skin; for ncRNA array expression, patient 19: melanoma patient 19 sample compared to normal skin; for ncRNA array expression, patient 20: melanoma patient 20 sample compared to normal skin; for ncRNA array expression, patient 21: melanoma patient 21 sample compared to normal skin; for ncRNA array expression, patient 22: melanoma patient 22 sample compared to normal skin; for ncRNA array expression, patient 23: melanoma patient 23 sample compared to normal skin; for ncRNA array expression, patient 24: melanoma patient 24 sample compared to normal skin; for ncRNA array expression, patient 25: melanoma patient 25 sample compared to normal skin; for ncRNA array expression, patient 26: melanoma patient 26 sample compared to normal skin; for ncRNA array expression, patient 27: melanoma patient 27 sample compared to normal skin; for ncRNA array expression, patient 28: melanoma patient 28 sample compared to normal skin; for ncRNA array expression, patient 29: melanoma patient 29 sample compared to normal skin; for ncRNA array expression, patient 30: melanoma patient 30 sample compared to normal skin
Description: An ncRNA array platform that contains over 10,000 putative (>200 nt) ncRNAs including most of the known ncRNAs in mouse and human was conducted to evaluate ncRNAs within melanoma. Lack of coding potential was estimated by an algorithm that scores various characteristics of protein-coding genes, including open reading frame length, synonymous/non-synonymous base substitution rates and similarity to known proteins. These arrays provide the first generation of tools designed to analyze the dynamic expression of a large subset of ncRNAs in human and mouse and to identify candidate genes for more detailed functional analysis. In addition to the ncRNA content, probes targeting mRNA content from RefSeq are also included, allowing discovery of coordinated expression with associated protein-coding genes. The result of these assays is a list of ncRNA genes (i.e. SEQ ID NO 28-89) and maps of their sequence boundaries. We have profiled total RNA isolated from melanocytes, keratinocytes, normal human skin, melanoma cell lines and melanoma patient samples to identify differentially expressed ncRNAs in cell lines and tissues. ncRNAs expression in all tested samples were compared to either melanocytes or normal skin. We have identified a group of ncRNAs that are specific for (a) melanocytes (b) Keratinocytes (c) Melanoma cell lines (d) Melanoma patients. […] Probe DNA sequences for this array include: AF086032 (SEQ ID NO 107) […] BC071821 (SEQ ID NO 108) […] C AK130193 (SEQ ID NO 109) […] AL109719 (SEQ ID NO 110) […] AF085888 (SEQ ID NO 111) […] T BC033879 (SEQ ID NO 112) […] AA AK024556 (SEQ ID NO 113) […] Probe nomenclature is standard genebank IDs given by NCBI and other organizations.
Keratinocytes specific signatures were subtracted and resultant ncRNAs were validated by qRT-PCR and Northern blots. Results point out the presence of a group of melanoma specific ncRNAs (i.e. SEQ ID NO 28-89).

Substance	ncRNA array expression, patient 2	ncRNA array expression, patient 3	ncRNA array expression, patient 4	ncRNA array expression, patient 5	ncRNA array expression, patient 6	ncRNA array expression, patient 7	ncRNA array expression, patient 8	ncRNA array expression, patient 9	ncRNA array expression, patient 10	ncRNA array expression, patient 19	ncRNA array expression, patient 20	ncRNA array expression, patient 21	ncRNA array expression, patient 22	ncRNA array expression, patient 23	ncRNA array expression, patient 24	ncRNA array expression, patient 25	ncRNA array expression, patient 26	ncRNA array expression, patient 27	ncRNA array expression, patient 28	ncRNA array expression, patient 29	other results
SEQ ID NO 28 (CTTAATGTATCTAAGGTTGGCTTAATCCTGTCTAAAATCAAGGTATTGGACTAGAACAAT; DNA, backbone and methylation of C not given here; listed as Homo sapiens)	2.064	2.037	2.709	1.822	−0.1399	2.032	1.588	0.7923	−0.2665	0.5486	1.334	0.4728	1.388	2.286	0.3368	2.417	3.091	2.371	3.316	3.278	ncRNA array expression, patient 30: −1.35
SEQ ID NO 29 (TTAAATACATGTTTCTAATATTTTAGTGTTTTGTATTTAGGTTATTTATTCTTTGTATCT; DNA, backbone and methylation of C not given here; listed as Homo sapiens)	3.623	2.485	3.452	2.59	1.012	2.658	3.211	2.109	2.287	0.6625	2.377	2.504	1.796	1.689	2.143	3.284	3.992	2.873	2.81	4.101	ncRNA array expression, patient 30: −2.062
SEQ ID NO 30 (ATTCCAAGGCCTATTAAAATTTCTGAGCATTGCCCATTTCTTTTGCTTTATCTGTAGGAC; DNA, backbone and methylation of C not given here; listed as Homo sapiens)	4.3	3.169	2.472	3.84	2.191	4.639	2.888	0.4508	3.549	0.5363	1.367	3.468	1.187	0.3079	−1.318	1.316	2.451	4.706	0.8038	4.757	ncRNA array expression, patient 30: 1.117
SEQ ID NO 31 (TTGCTTTTGTATTTGTAATTTTATGACATTTCGAAGTTTCTGTGTCTTAACTCTTTTTAA; listed as DNA, chemistry not given here; listed as Homo sapiens)	2.958	2.154	2.238	2.368	1.429	4.22	−0.4178	2.588	3.165	2.105	2.853	4.304	2.578	2.86	1.373	2.408	3.487	2.156	2.25	2.949	ncRNA array expression, patient 30: −2.886
SEQ ID NO 32 (ATTCAAATCTTCATGAATGGCATCACTTGCTTTAGACCCATTTTTTTTTTATTGGTCAGA; DNA, backbone and methylation of C not given here; listed as Homo sapiens)	1.211	0.4737	2.717	1.51	0.7439	1.568	2.606	1.062	0.7286	2.126	3.196	0.7443	0.9022	0.8613	1.339	4.072	3.121	3.501	0.9963	1.473	ncRNA array expression, patient 30: −2.05
SEQ ID NO 33 (TATTGAATGTACACAAGTAATGATGGAGTTTGATTATATGGTTCATTTTCATTTATCCTA; DNA, backbone and methylation of C not given here; listed as Homo sapiens)	0.6575	0.8123	3.512	0.6998	1.768	2.379	2.278	0.3136	1.984	1.068	1.404	1.613	0.8185	−0.4072	3.016	1.628	2.999	3.593	2.24	2.111	ncRNA array expression, patient 30: −0.2823
SEQ ID NO 34 (TTTTCTCTGCTTATTACCCTCCCTGTTTCCTCCTGGGCTGCCAACAACATATTATATTAC; listed as DNA, chemistry not given here; listed as Homo sapiens)	2.375	2.833	2.701	2.722	2.606	3.005	2.354	1.958	−1.787	2.243	3.044	2.382	2.727	2.643	1.817	2.013	1.687	2.945	2.485	2.129	ncRNA array expression, patient 30: −0.1242
